For orientation: IC50 means the concentration needed to halve the response being measured. For orientation: EC50 means the concentration at which the effect is half-maximal.

Where “and” joins values, the source holds several entries; their conditions need not be identical. Equal values may be shown once.

We go through three substances from patent US7208282B2 (priority 2001, dated 2007).

One test relates to non-transfected cells. The test is described as follows: intracellular calcium (fura-2) in non-transfected HEK293T cells. It is filed as cell-based, human. The following applies: data not shown. An excerpt:
The entire coding sequence of rhesus MCH-2R was cloned into BamHI-NotI site of pEF1/[…] C plasmid vector (Invitrogen). The resultant construct was transfected into HEK293T cells using LipofectAmine PLUS (Life Technologies, Rockville, Md.) according to the manufacture's instructions. Human embryonic kidney cells constitutively expressing SV40 large T antigen (HEK-293T) were maintained in Dulbecco's modified Eagle medium (Life Technologies) supplemented with 10% fetal bovine serum, 100 units/ml penicillin-G and 100 μg/ml streptomycin at 37° C. with 5% CO2 in a humidified atmosphere. […] The cells were suspended with the buffer containing 2 μM fura-2 acetoxymethylester (Dojin, Kumamoto, Japan) into the cell density of 1.0×10^7 cells/ml and incubated at 37° C. for 60 minutes with gently shaking. The fura-2-loaded cells were washed twice with the buffer and re-suspended with the buffer to 1.0×10^6 cells/ml. 0.5 ml of the resultant suspension was stirred continuously at 37° C. in a glass cuvette during the measurement. […] Data were analyzed using the software GraphPad Prism Version 3.0 (GraphPad Software, Inc., San Diego, Calif., USA).

Test [1] has as its system ferret MCH-2R. The test is described as follows: membrane radioligand binding assay, transfected COS-7 cells, ferret MCH-2R. The following applies: COS-7 membranes. The protocol:
Membrane binding assays were performed on transiently-transfected COS-7 cells using human or ferret MCH-2R in the plasmid vector pCI-neo (Promega, Madison, Wis.), COS-7 cells were cultured in Dulbecco's modified Eagle medium (Gibco BRL, Rockville, Md.) with 10% heat inactivated fetal calf serum.
A suspension of 7×10^6 COS-7 cells were transfected with 20 μg of pCI-neo/MCH-2R plasmid by electroporation. (Strader, et al., 1987. Proc. Natl. Acad. Sci. USA 84, 4384–4388). Cells were harvested after 60–72 hours. Membranes were prepared from transient and stable transfectants by hypotonic lysis, frozen in liquid nitrogen, and stored at −80° C. (MacNeil, et al., 1994. Biochem. Biophys. Res. Commun. 198, 328–334.)
A binding assay was set up in 96 well plates. Total volume per binding assay point was 200 μL. […] Dose response curves were from 10 μM in 5 fold or 3-fold dilution series for 11 points. The mixture was shaken for 5 minutes on a platform shaker, and incubated at room temperature for 1 hour. Filter plates were presoaked in 1% PEI. The binding reaction was harvested onto filters using Packard Filtermate harvester (Meriden, Conn.). The filters were then washed in 50 mM Tris pH 7.4, 10 mM MgCl2, 2 mM EDTA, 0.04% Tween 20, 6–8 times per plate. […] 30 μL microscintillant was added per well and counted for 1.5–3 minutes in inverted format on Packard TopCount. […]

Test [2] relates to ferret MCH-2R. As to the kind of experiment: aequorin bioluminescence functional assay, ferret MCH-2R. It is filed as cell-based. The following applies: aequorin HEK-293 cells, read-out: Function (EC50). The text has this:
The aequorin bioluminescence assay is a reliable test for identifying G-protein-coupled receptors which couple through the G protein subunit family consisting of Gq and G11 which leads to the activation of phospholipase C, mobilization of intracellular calcium, and activation of protein kinase C. (Ungrin, et al., Anal. Biochem. 1999. 272:34–42.)
For expression studies, HEK-293 cells stably expressing the aequorin reporter protein were transiently transfected with MCH-2R human or ferret expression plasmid or stable cell lines were derived (human MCH-2R). The assay was performed using a Luminoscan RT luminometer (Labsystems Inc., Gaithersburg, Md.).
293AEQ17/Aequorin cells (Button, et al., 1993. Cell Calcium 14, 663–671), were cultured for 72 hours and the apo-aequorin in the cells was charged for 1 hour with coelenterazine (10 μM) under reducing conditions (300 μM reduced glutathione) in ECB buffer (140 mM NaCl, 20 mM KCl, 20 mM HEPES-NaOH, pH 7.4, 5 mM glucose, 1 mM MgCl2, 1 mM CaCl2, 0.1 mg/mL bovine serum albumin). […] 100 μL of cell suspension (corresponding to 5×10^4 cells) was then injected into the test plate containing ligands, and the integrated light emission was recorded over 30 seconds, in 0.5-second units. 20 μL of lysis buffer (0.1% final Triton X-100 concentration) was then injected and the integrated light emission recorded over 10 seconds, in 0.5-second units. […]

The test system of another test is mock transfected cells. As to the kind of experiment: radioligand binding to mock transfected HEK293T cells. Details: species or system human. The following applies: for specific binding into mock transfected cells: in words. The protocol:
HEK293T cells were seeded into 24-well culture plates coated with poly-D-Lys at 1×10^5 cells/well and were cultured over-night. […] Forty-eight hours after transfection, the transfected monolayer cells were rinsed with the assay buffer (Hanks' balanced salt solution containing 20 mM HEPES, 0.2% BSA and 100 μg/ml bacitracin, pH 7.4). The cells were then incubated in 250 μl/well of the same buffer with [^125I]-MCH (100 pM, NEN Life Science Products, Boston, Mass.) or [^125I]-[Phe^13, Tyr^19]-MCH (100 pM, NEN Life Science Products) for 30 minutes at 37° C. After the incubation, the cells were washed three times with the ice cold assay buffer and lysed with 500 μl/well of 2 M NaOH. The lysates were transferred into test tubes and the cell-bound radioactivity was measured by a COBLA Quantum γ-counter (Packard Instrument, Meriden, Conn.).

The next test deals with T1, rhesus MCH-2R (Macaca mulatta, UniProt Q8MJ88).
T1 construct: expressed in transfected cells; host or cells: HEK293T
As to the kind of experiment: radioligand binding to adherent HEK293T cells expressing rhesus MCH-2R. The arrangement: species or system rhesus monkey. As for the experimental part: HEK293T cells were seeded into 24-well culture plates coated with poly-D-Lys at 1×10^5 cells/well and were cultured over-night. The adherent cells were transfected with pEF1/V5-HisC/rhesus MCH-2R plasmid (see Example 2). Forty-eight hours after transfection, the transfected monolayer cells were rinsed with the assay buffer (Hanks' balanced salt solution containing 20 mM HEPES, 0.2% BSA and 100 μg/ml bacitracin, pH 7.4). The cells were then incubated in 250 μl/well of the same buffer with [^125I]-MCH (100 pM, NEN Life Science Products, Boston, Mass.) or [^125I]-[Phe^13, Tyr^19]-MCH (100 pM, NEN Life Science Products) for 30 minutes at 37° C. After the incubation, the cells were washed three times with the ice cold assay buffer and lysed with 500 μl/well of 2 M NaOH. The lysates were transferred into test tubes and the cell-bound radioactivity was measured by a COBLA Quantum γ-counter (Packard Instrument, Meriden, Conn.).

[3] abbreviates: 100 pM radioligand, Mock transfected cells.

T1 sequence (Q8MJ88 whole entry): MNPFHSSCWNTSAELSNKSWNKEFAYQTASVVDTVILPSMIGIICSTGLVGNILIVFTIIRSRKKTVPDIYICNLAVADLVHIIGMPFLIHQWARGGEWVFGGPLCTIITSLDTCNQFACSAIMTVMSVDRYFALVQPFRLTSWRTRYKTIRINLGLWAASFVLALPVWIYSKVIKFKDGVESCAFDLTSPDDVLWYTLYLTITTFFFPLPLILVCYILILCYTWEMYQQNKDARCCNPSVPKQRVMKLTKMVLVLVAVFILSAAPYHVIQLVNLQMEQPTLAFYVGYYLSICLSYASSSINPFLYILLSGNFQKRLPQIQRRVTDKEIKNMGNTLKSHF
Chain of ferret MCH-2R (as listed by the source): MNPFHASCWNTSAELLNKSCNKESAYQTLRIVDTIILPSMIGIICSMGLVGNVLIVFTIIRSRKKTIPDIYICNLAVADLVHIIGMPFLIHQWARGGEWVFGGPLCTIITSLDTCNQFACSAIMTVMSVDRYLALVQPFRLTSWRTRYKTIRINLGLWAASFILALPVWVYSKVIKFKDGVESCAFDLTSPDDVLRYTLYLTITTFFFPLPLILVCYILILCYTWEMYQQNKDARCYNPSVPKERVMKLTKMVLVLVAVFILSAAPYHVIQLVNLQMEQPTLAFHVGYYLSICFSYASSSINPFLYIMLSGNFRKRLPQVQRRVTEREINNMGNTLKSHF

In the case of Melanin-concentrating hormone [MCH], the “[Ca2+]i increase in non-transfected cells” value in the test on non-transfected cells is “failed to induce a detectable [Ca^2+]i increase”. This substance yielded an IC50 with ferret MCH-2R [1] of 0.055 µM. In addition, in the test on ferret MCH-2R [2], the EC50 was determined as 0.069 µM.

Consider [^125I]-MCH, for which the “[125I]-MCH binding, Total binding” value in the test on mock transfected cells (setting [3]) is 209.9 cpm and 215.8 cpm and 239.8 cpm. Besides, the “[125I]-MCH binding, Nonspecific binding” value in the test with mock transfected cells (100 pM radioligand, in the presence of 1 μM cold MCH, Mock transfected cells) is 172.0 cpm and 180.9 cpm and 184.1 cpm. The “specific binding into mock transfected cells” value in the test with mock transfected cells was “not observed”.

For [^125I]-[Phe^13, Tyr^19]-MCH, the “[125I]-[Phe13, Tyr19]-MCH binding, Total binding” value at rhesus MCH-2R (100 pM radioligand, 30 minutes at 37° C., rhesus MCH-2R transfected cells) is 18031.2 cpm and 18749.0 cpm and 17985.4 cpm; in the test with mock transfected cells (setting [3]), 708.9 cpm and 663.3 cpm and 771.5 cpm. The “[125I]-[Phe13, Tyr19]-MCH binding, Nonspecific binding” value was 567.4 cpm and 717.0 cpm and 598.0 cpm on rhesus MCH-2R (100 pM radioligand, in the presence of 1 μM cold [Phe13, Tyr19]-MCH, rhesus MCH-2R transfected cells); 539.7 cpm and 537.7 cpm and 557.8 cpm in the test on mock transfected cells (100 pM radioligand, in the presence of 1 μM cold [Phe13, Tyr19]-MCH, Mock transfected cells). Moreover, the “binding to HEK293T cells expressing rhesus MCH-2R” value at rhesus MCH-2R (in words) is given as “good windows”. Also, the “specific binding into mock transfected cells” value with mock transfected cells is “not observed”.
